Laboratory results from patent US11767341B2, “Lincosamide antibiotics and uses thereof” (President and Fellows of Harvard College, priority 2017, dated 2023).
Values after ≈ are worked out from the molar mass of the structure shown. Where two headings read alike, the source gives them in different places.

How the values were obtained:
Experiment in all cases: MIC determination
Type in all cases: cell-based
[1] = tested on: S. pneumoniae TP 1537 (ermB + mefA); details: Streptococcus pneumoniae
S. aureus MMX 3035 cErmA = details: Staphylococcus aureus, MMX3035CERMA
K. pneumoniae ATCC 10031 = details: Klebsiella pneumoniae, ATCC10031; K. pneumoniae ATCC 10031; read-out: MIC
[2] = tested on: S. aureus UNT96, NRS710, MP-618 (USA 100, Erythro >8); details: Staphylococcus aureus
E. coli ATCC 25922 = details: Escherichia coli
[3] = tested on: S. pneumoniae MMX 3028 cErmB; details: Streptococcus pneumoniae, MMX3028CERMB; S. pneumoniae MMX 3028 cErmB; read-out: MIC
[4] = tested on: S. aureus BAA-1556 (USA 300); details: Staphylococcus aureus
[5] = tested on: K. pneumoniae IHMA 658692; KPC-2; details: Klebsiella pneumoniae
[6] = tested on: S. pneumoniae TP 1579 (ermB + tet(M, O)); details: Streptococcus pneumoniae
[7] = tested on: E. faecalis MMX 847 Macrolide-Resistant; details: Enterococcus faecalis
[8] = tested on: S. pyogenes UNT-014, MP-625 MacRes; details: Streptococcus pyogenes; S. pyogenes UNT-014, MP-625 MacRes; read-out: MIC
P. aeruginosa ATCC 27853 = details: Pseudomonas aeruginosa, ATCC27853
[9] = tested on: S. pneumoniae UNT-038, MP-626, TP 160 (mefA); details: Streptococcus pneumoniae
[10] = tested on: S. pneumoniae MMX 3031 cMefA; details: Streptococcus pneumoniae, MMX3031CMEFA
K. pneumoniae UNT TEM-10 = details: Klebsiella pneumoniae, UNTTEM10
[11] = tested on: S. aureus UNT-120, MP-619, NRS22 (USA 600, GISA); details: Staphylococcus aureus
C. difficile BAA 1805 = details: Clostridioides difficile, BAA1805; C. difficile BAA 1805; read-out: MIC
[12] = tested on: S. aureus UNT-146, MP-620, TP 506 (ermA); details: Staphylococcus aureus
[13] = tested on: S. pneumoniae UNT-039, MP-627, TP1517 (mefA); details: Streptococcus pneumoniae
E. faecalis ATCC 29212 = details: Enterococcus faecalis
B. fragilis ATCC 25285 = details: Bacteroides fragilis, ATCC25285; B. fragilis ATCC 25285; read-out: MIC
S. aureus BAA 977 iErmA = details: Staphylococcus aureus, BAA977
[14] = tested on: S. aureus Micromyx USA 300; details: Staphylococcus aureus, USA300; S. aureus Micromyx USA 300; read-out: MIC
H. influenzae ATCC 49247 = details: Haemophilus influenzae, ATCC49247; H. influenzae ATCC 49247; read-out: MIC
[15] = tested on: P. aeruginosa MMX Mex parent strain; details: Pseudomonas aeruginosa
E. coli GUEST131 (NDM-1) = details: Escherichia coli
[16] = tested on: S. pyogenes MMX 946 Macrolide-Resistant; details: Streptococcus pyogenes
E. faecalis UNT-047 VRE = details: Enterococcus faecalis
S. pneumoniae ATCC 49619 = details: Streptococcus pneumoniae, ATCC49619; S. pneumoniae ATCC 49619; read-out: MIC
[17] = tested on: E. coli MMX TolC parent strain; details: Escherichia coli
S. pyogenes ATCC 19615 = details: Streptococcus pyogenes, ATCC19615; S. pyogenes ATCC 19615; read-out: MIC
S. aureus ATCC 29213 = details: Staphylococcus aureus, ATCC29213, S. aureus ATCC 29213; read-out: MIC
E. coli MMX 0121 ΔTolC = details: Escherichia coli
[18] = tested on: P. aeruginosa MMX 3476 Δmex; details: Pseudomonas aeruginosa
[19] = tested on: S. aureus MP-549 msr(a) USA 300; details: Staphylococcus aureus, USA300, S. aureus MP-549 msr(a) USA 300

Row | SMILES | MIC (K. pneumoniae ATCC 10031) [µg/mL] | MIC [3] [µg/mL] | MIC [6] [µg/mL] | MIC [8] [µg/mL] | MIC [9] [µg/mL] | MIC [10] [µg/mL] | MIC (C. difficile BAA 1805) [µg/mL] | MIC [13] [µg/mL] | MIC (B. fragilis ATCC 25285) [µg/mL] | MIC (S. aureus BAA 977 iErmA) [µg/mL] | MIC [14] [µg/mL] | MIC (H. influenzae ATCC 49247) [µg/mL] | MIC (E. coli GUEST131 (NDM-1)) [µg/mL] | MIC (S. pneumoniae ATCC 49619) [µg/mL] | MIC (S. pyogenes ATCC 19615) [µg/mL] | MIC (S. aureus ATCC 29213) [µg/mL] | MIC (E. coli MMX 0121 ΔTolC) [µg/mL] | MIC [18] [µg/mL] | also measured
1 | CSC1O[C@H]([C@H](NC(=O)[C@H]2NC[C@@H]3CC(F)(F)CCO[C@H]32)[C@H](C)Cl)C(O)[C@@H](O)[C@H]1O (stereo partly drawn) [FSA-24036] | 16 (≈ 33.7 µM) | 64 (≈ 135 µM) | ≤ 0.0313 | ≤ 0.0313 | ≤ 0.0313 | ≤ 0.06 | 2 (≈ 4.21 µM) | ≤ 0.0313 | 4 (≈ 8.42 µM) | 0.5 (≈ 1.05 µM) | 0.12 (≈ 0.253 µM) | 4 (≈ 8.42 µM) | > 32 | ≤ 0.06 | ≤ 0.0313 | 0.25 (≈ 0.526 µM) | 8 (≈ 16.8 µM) | 32 (≈ 67.4 µM) | MIC ([1]; S. pneumoniae TP 1537 (ermB + mefA), read-out: MIC): > 32 µg/mL; MIC (S. aureus MMX 3035 cErmA; S. aureus MMX 3035 cErmA, read-out: MIC): > 64 µg/mL; MIC ([2]; S. aureus UNT96, NRS710, MP-618 (USA 100, Erythro >8), read-out: MIC): > 32 µg/mL; MIC (E. coli ATCC 25922; ATCC25922, E. coli ATCC 25922, read-out: MIC): > 64 µg/mL; MIC ([4]; S. aureus BAA-1556 (USA 300), read-out: MIC): > 32 µg/mL; MIC ([5]; K. pneumoniae IHMA 658692, KPC-2, read-out: MIC): > 32 µg/mL; MIC ([7]; E. faecalis MMX 847 Macrolide-Resistant (MacRes), read-out: MIC): > 64 µg/mL; MIC (P. aeruginosa ATCC 27853; P. aeruginosa ATCC 27853, read-out: MIC): > 64 µg/mL; MIC (K. pneumoniae UNT TEM-10; K. pneumoniae UNT TEM-10, read-out: MIC): > 32 µg/mL; MIC ([11]; S. aureus UNT-120, MP-619, NRS22 (USA 600, GISA), read-out: MIC): > 32 µg/mL; MIC ([12]; S. aureus UNT-146, MP-620, TP 506 (ermA), read-out: MIC): > 32 µg/mL; MIC (E. faecalis ATCC 29212; ATCC29212, read-out: MIC): 4 µg/mL (≈ 8.42 µM); MIC ([15]; P. aeruginosa MMX Mex parent strain, read-out: MIC): > 64 µg/mL; MIC ([16]; S. pyogenes MMX 946 Macrolide-Resistant (MacRes), read-out: MIC): 4 µg/mL (≈ 8.42 µM); MIC (E. faecalis UNT-047 VRE; E. faecalis UNT-047 VRE, read-out: MIC): > 32 µg/mL; MIC ([17]; E. coli MMX TolC parent strain, read-out: MIC): > 64 µg/mL
2 | CSC1O[C@H]([C@H](NC(=O)[C@H]2NC[C@@H]3CC=CCO[C@H]32)[C@H](C)Cl)C(O)[C@@H](O)[C@H]1O (stereo partly drawn) [FSA-24035] | 64 (≈ 146 µM) | 64 (≈ 146 µM) | ≤ 0.0313 | ≤ 0.0313 | ≤ 0.0313 | ≤ 0.06 | 2 (≈ 4.58 µM) | ≤ 0.0313 | 8 (≈ 18.3 µM) | 0.25 (≈ 0.572 µM) | 0.12 (≈ 0.275 µM) | 1 (≈ 2.29 µM) | > 32 | ≤ 0.06 | ≤ 0.0313 | 0.12 (≈ 0.275 µM) | 4 (≈ 9.15 µM) | 16 (≈ 36.6 µM) | MIC [1]: 32 µg/mL (≈ 73.2 µM); MIC (S. aureus MMX 3035 cErmA): > 64 µg/mL; MIC [2]: > 32 µg/mL; MIC (E. coli ATCC 25922; ATCC25922): > 64 µg/mL; MIC [4]: > 32 µg/mL; MIC [5]: 32 µg/mL (≈ 73.2 µM); MIC [7]: > 64 µg/mL; MIC (P. aeruginosa ATCC 27853): > 64 µg/mL; MIC (K. pneumoniae UNT TEM-10): 32 µg/mL (≈ 73.2 µM); MIC [11]: > 32 µg/mL; MIC [12]: > 32 µg/mL; MIC (E. faecalis ATCC 29212; ATCC29212): 16 µg/mL (≈ 36.6 µM); MIC [19]: 0.5 µg/mL (≈ 1.14 µM); MIC [15]: > 64 µg/mL; MIC [16]: 16 µg/mL (≈ 36.6 µM); MIC (E. faecalis UNT-047 VRE; VRE): > 32 µg/mL; MIC [17]: > 64 µg/mL
